How the values were obtained:
Type in all cases: cell-based
SMARCA2 [1] = biological target: T1, SMARCA2 (Homo sapiens, UniProt P51531); assay: MSD SMARCA2 degradation in A549 cell line; parameters: endogenous in cells; details: 24 h; for Dmax: A549, A549 cells; for DC50: A549 cells, read-out: SMARCA2 MSD A549 degradation 24 h: Average external-Abs DC50
Method: Example 53. MSD SMARCA2 Degradation in A549 Cell Line
Cells were seeded into 96-well plates (A549 cells: 2×10^4 cells/well/100 ul media) abd incubated overnight. The next day, 200 nl compound were added into the intermediate plate with Echo (Labcyte 550) from source plate containing a 3-fold serial dilution from top concentration of 1 mM. The culture medium was changed with 80 ul of fresh medium and 80 ul of 2× compound solution was added into the well to make a final concentration of 1000 nM, 333.3 nM, 111.1 nM, 37.04 nM, 12.35 nM, 4.115 nM, 1.372 nM, 0.457 nM, 0.152 nM and 0 nM (DMSO). The wells were mixed and then incubated for 24 hours. The media was aspirated from the cultures and 60 ul pre-chilled PIPA lysis buffer (Boston BioProducts BP-115D) with protease/phosphatase inhibitor (Roche 05892791001/Roche 04906837001) was added into the well to lyze the cells for 20 minutes at 4° C. The MSD plate (L15XA) was coated with 40 ul cell lysate and incubated at 4° C. overnight. The next day, the plate was washed three times with TBST (CST #9997S), 150 ul/well. The MSD plates was blocked with 150 ul blocking buffer per well and shaked for 1 hr at R^†, 600 rpm. The blocking buffer was 3% Blocker A (MSD, R93BA-4) in TBST. The MSD plate was washed three times with 150 ul/well of TBST and 25 ul/well of detection antibody (Rabbit anti-SMARCA2/BRM antibody, 100 μg/ml, ab223735) was added at final concentration of 1 ug/mi diluted in 1% o Blocking buffer and shaken for 1 hour at R^†, 600 rpm. The MSD plate was washed three times with 150 ul/well of TBST and 25 ul/well of SULFO-TAG anti-rabbit antibody (MSD, R32AB-1) was added at final concentration of 1 μg/ml diluted in […] Blocking buffer and shaken for 1 hour at R^†, 600 rpm. The MSD plate was washed three times with 150 ul/well of TBST and 150 ul/well of 2×MSD reading buffer diluted from 4× (MSD, R92TC-2) with water was added. Lastly, the MSD instrument was read.
(§1) The letter codes for SMARCA2 degradation potency (DC50) include: A (<100 nM), B (100-500 nM), C (501-1000 nM), and D (>1000 nM). The letter codes for the percentage of SMARCA2 degradation after 24 hours (Dmax % o) include: A (>90% o degradation), B (>70-90% o degradation), C (50-70% o degradation), and D (<50% degradation).

SMARCA2 [2] = biological target: T1, SMARCA2; assay: SMARCA2 Western blot MV4-11 degradation; parameters: SMARCA2 and SMARCA4 protein degradation in MV4-11 cells; endogenous in cells; host or cells: MV4-11; details: 24 h; for Dmax: MV4-11, MV4-11 cells, read-out: SMARCA2 MSD MV411 degradation 24 h: average Dmax %; for DC50: MV4-11 cells, read-out: SMARCA2 MSD MV411 degradation 24 h: Mean external-Abs DC50
Method: (§2) Example 54. SMARCA2 and SMARCA 4 Western Blot MV4-11 Degradation
(§3) Cells were seeded into 6-well plates (MV4-11: 4×10^6 cells/well/1 ml) and 1 ml of 2× compound solution was added into the well to make the final concentration and the plates were mixed well and incubated for 24 hours (No cytotoxicity was observed). The cell were collected with media and spun at 3000 rpm for 5 minutes. The supernatant was aspirated and the well and the cells were washed with cold PBS once and combined for centrifugation again; the supernatant aspirated again. 200 ul pre-chilled RIPA lysis buffer (Boston BioProducts BP-115D) with protease/phosphatase inhibitor (Roche 05892791001/Roche 04906837001) was directly added into the tube to lyze the cells for 20 minutes on ice. The cell lysate were collected into EP tubes and spun at 13000 rpm for 20 minutes and 72 ul supernatant was transferred to a fresh EP tube containing 18 ul of 5× loading buffer (Beyotime Bio P0015) to make the loading samples. The samples were heated to 100° C. for 10 minutes and cooled to RT and microcentrifuged. 20 ul of samples were loaded onto SDS-PAGE gel (Novex, WG1402BOX) and the gel was run at 80 V for 20 minutes and 120 V for 1.5 hours. The samples were electrotransfer to a NC membrane using wet-transfer method with 250 mA for 2.5 hours. The membrane was blocked with LICOR blocking buffer (LI-COR, 927-50000) for 1 hour. The membrane was washed three times with TBST (CST #9997S), 5 minutes each. Incubation was performed with primary antibody prepared in blocking buffer with 0.1% Tween-20 (Solarbio, P8220) at 4° C. overnight (Anti-SMARCA2/BRM antibody (ab15597) 1:500; Anti-BRG1 antibody [EPR3912] (ab108318) 1:1000; Rabbit anti-Baf180 antibody [EPR15860] (Abcam, ab196022) 1:1000; mouse anti-beta-Actin (8H10D10) (CST #3700) 1:10000). The membrane was washed three times with TBST, 5 minutes each. Incubation with secondary antibody was performed for 1 hour at RT (anti-rabbit IgG (Licor, 926-32211) 1:5000; anti-mouse IgG (LI-COR, 926-68070) 1:5000). The membrane was washed three times with TBST, 5 minutes each and lastly the LiCOR was read.
as §1, with “SMARCA” for “SMARCA2”, “%)” for “% o)”, “(>90%” for “(>90% o”, “(>70-90%” for “(>70-90% o”, “(50-70%” for “(50-70% o”

SMARCA4 = biological target: T2, SMARCA4 (Homo sapiens, UniProt P51532); assay: SMARCA4 Western blot MV4-11 degradation; details: MV4-11 cells, 24 h; read-out: SMARCA4 MSD MV411 degradation 24 h: Mean external-Abs DC50
T2 construct: SMARCA2 and SMARCA4 protein degradation in MV4-11 cells; endogenous in cells; host or cells: MV4-11
T2 sequence (P51532 whole entry): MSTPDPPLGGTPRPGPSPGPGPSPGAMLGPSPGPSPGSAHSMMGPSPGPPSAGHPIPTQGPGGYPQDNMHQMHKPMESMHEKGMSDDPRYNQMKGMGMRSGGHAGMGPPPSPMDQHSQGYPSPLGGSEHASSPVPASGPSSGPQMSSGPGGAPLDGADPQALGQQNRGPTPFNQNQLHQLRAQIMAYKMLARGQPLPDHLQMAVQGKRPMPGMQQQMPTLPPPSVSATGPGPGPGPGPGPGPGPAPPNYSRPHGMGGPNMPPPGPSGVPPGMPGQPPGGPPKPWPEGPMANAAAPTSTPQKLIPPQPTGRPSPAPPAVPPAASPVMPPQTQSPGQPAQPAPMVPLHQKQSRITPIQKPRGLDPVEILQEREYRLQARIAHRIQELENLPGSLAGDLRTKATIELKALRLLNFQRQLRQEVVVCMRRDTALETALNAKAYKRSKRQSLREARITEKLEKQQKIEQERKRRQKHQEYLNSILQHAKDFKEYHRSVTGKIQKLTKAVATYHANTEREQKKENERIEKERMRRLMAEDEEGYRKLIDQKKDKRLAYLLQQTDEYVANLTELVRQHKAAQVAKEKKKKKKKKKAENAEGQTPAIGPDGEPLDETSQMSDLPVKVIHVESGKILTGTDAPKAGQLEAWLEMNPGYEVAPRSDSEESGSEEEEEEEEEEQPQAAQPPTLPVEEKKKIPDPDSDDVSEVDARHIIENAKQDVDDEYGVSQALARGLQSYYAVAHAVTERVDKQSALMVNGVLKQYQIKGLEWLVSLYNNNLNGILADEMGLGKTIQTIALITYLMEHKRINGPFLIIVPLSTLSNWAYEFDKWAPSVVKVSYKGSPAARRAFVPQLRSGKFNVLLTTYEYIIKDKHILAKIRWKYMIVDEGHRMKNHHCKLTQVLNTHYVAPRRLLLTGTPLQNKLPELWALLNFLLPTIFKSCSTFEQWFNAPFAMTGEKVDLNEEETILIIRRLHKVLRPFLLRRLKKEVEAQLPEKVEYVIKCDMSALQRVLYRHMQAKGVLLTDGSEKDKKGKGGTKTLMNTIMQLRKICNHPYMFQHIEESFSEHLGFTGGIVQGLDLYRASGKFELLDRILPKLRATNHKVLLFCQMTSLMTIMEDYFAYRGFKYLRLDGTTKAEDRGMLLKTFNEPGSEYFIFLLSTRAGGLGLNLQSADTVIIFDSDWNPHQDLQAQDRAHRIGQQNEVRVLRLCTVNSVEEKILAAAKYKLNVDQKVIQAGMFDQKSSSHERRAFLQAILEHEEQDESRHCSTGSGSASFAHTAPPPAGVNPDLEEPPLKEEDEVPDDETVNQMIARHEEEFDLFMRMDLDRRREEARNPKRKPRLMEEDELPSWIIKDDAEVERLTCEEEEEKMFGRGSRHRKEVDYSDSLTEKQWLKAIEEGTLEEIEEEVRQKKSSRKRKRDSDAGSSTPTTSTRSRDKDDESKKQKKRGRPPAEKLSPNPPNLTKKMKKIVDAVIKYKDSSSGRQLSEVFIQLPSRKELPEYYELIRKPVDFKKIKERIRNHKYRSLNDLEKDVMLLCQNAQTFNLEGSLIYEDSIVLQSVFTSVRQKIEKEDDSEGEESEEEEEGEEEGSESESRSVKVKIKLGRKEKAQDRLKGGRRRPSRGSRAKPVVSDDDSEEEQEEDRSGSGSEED
Method: as §2, §3
as §1, with “SMARCA” for “SMARCA2”, “%)” for “% o)”, “(>90%” for “(>90% o”, “(>70-90%” for “(>70-90% o”, “(50-70%” for “(50-70% o”

T1 sequence (P51531 whole entry): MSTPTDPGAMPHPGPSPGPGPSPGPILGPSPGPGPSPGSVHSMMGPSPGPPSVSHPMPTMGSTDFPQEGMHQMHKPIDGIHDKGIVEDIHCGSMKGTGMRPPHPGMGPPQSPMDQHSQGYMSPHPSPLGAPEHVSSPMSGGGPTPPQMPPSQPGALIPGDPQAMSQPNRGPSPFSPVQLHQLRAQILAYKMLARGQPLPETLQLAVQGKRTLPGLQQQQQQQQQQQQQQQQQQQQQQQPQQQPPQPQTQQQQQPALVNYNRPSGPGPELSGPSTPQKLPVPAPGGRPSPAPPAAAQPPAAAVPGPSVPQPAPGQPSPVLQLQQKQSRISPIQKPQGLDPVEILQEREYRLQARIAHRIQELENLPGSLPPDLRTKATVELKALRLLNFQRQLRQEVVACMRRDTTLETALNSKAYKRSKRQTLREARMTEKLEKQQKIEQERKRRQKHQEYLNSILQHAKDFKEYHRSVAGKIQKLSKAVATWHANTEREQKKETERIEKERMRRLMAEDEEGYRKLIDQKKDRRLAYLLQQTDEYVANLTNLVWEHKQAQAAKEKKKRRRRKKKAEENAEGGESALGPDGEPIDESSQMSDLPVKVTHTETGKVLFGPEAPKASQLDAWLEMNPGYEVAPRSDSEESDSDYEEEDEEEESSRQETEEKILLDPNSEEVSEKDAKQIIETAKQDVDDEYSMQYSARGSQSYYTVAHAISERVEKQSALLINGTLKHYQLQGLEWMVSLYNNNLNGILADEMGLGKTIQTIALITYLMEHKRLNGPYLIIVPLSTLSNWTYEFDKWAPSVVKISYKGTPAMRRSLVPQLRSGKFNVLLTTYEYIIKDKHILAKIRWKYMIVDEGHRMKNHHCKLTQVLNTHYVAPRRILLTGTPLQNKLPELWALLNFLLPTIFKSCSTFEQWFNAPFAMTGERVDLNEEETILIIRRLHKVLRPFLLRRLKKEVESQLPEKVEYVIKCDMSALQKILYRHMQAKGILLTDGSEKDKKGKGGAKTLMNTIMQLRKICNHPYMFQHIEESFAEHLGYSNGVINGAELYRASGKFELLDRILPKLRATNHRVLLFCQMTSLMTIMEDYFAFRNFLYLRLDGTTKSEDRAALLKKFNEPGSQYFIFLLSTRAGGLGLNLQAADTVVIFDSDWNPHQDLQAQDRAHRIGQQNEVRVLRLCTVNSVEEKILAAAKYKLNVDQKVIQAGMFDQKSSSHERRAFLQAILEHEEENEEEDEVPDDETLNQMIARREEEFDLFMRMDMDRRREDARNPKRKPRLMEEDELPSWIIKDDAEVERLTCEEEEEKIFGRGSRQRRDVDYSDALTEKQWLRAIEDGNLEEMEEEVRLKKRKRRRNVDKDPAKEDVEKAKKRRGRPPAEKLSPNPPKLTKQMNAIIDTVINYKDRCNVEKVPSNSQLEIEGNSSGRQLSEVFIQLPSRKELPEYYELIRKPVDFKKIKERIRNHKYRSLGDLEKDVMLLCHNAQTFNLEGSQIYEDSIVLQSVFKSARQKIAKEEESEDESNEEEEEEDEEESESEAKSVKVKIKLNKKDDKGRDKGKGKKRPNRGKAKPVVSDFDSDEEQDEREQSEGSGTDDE

SMILES | Dmax (SMARCA2 [1]) | DC50 (SMARCA2 [1]) | Dmax (SMARCA2 [2]) | DC50 (SMARCA2 [2]) | DC50 (SMARCA4)
Cc1ncsc1-c1ccc(CNC(=O)[C@@H]2C[C@@H](O)CN2C(=O)C(c2cc(O[C@H]3CC[C@@H](N4CCC(c5cnc(N6C7CCC6CN(c6cc(-c8ccccc8O)nnc6N)C7)nc5)CC4)CC3)no2)C(C)C)cc1 (stereo partly drawn) [I-18, (2S,4R)-1-(2-(3-(((1s,4R)-4-(4-(2-(3-(3-amino-6-(2-hydroxyphenyl)pyridazin-4-yl)-3,8-diazabicyclo[3.2.1]octan-8-yl)pyrimidin-5-yl)piperidin-1-yl)cyclohexyl)oxy)isoxazol-5-yl)-3-methylbutanoyl)-4-hydroxy-N-(4-(4-methylthiazol-5-yl)benzyl)pyrrolidine-2-carboxamide] | > 90% | < 100 nM | > 90% | < 100 nM | 
Cc1ncsc1-c1ccc(CNC(=O)[C@@H]2C[C@H](O)CN2C(=O)[C@@H](NC(=O)[C@H]2CC3(C2)C[C@H](N2CCC(c4cnc(N5C6CCC5CN(c5cc(-c7ccccc7O)nnc5N)C6)nc4)CC2)C3)C(C)(C)C)cc1 (stereo partly drawn) [I-80, (2S,4S)-1-((2S)-2-(6-(4-(2-(3-(3-amino-6-(2-hydroxyphenyl)pyridazin-4-yl)-3,8-diazabicyc-lo[3.2.1]octan-8-yl)pyrimidin-5-yl)piperidin-1-yl)spiro[3.3]heptane-2-carboxamido)-3,3-dimethylbutanoyl)-4-hydroxy-N-(4-(4-methylthiazol-5-yl)benzyl)pyrrolidine-2-carbox-amide] |  | > 1000 nM |  |  | > 1000 nM
Cc1nccn1-c1ccc(CNC(=O)[C@@H]2C[C@@H](O)CN2C(=O)[C@@H](NC(=O)[C@H]2CC3(C2)C[C@H](N2CCC(c4cnc(N5C6CCC5CN(c5cc(-c7ccccc7O)nnc5N)C6)nc4)CC2)C3)C(C)(C)C)cc1 (stereo partly drawn) [I-34, (2S,4R)-1-((2S)-2-(6-(4-(2-(3-(3-amino-6-(2-hydroxyphenyl)pyridazin-4-yl)-3,8-diazabicyclo[3.2.1]octan-8-yl)pyrimidin-5-yl)piperidin-1-yl)spiro[3.3]heptane-2-carboxamido)-3,3-dimethylbutanoyl)-4-hydroxy-N-(4-(2-methyl-1H-imidazol-1-yl)benzyl-)pyrrolidine-2-carboxamide] |  |  |  | 100 to 500 nM | > 1000 nM
Cc1ncsc1-c1cnc(CNC(=O)[C@@H]2C[C@@H](O)CN2C(=O)[C@@H](NC(=O)[C@H]2CC3(C2)C[C@H](N2CCC(c4ccc(N5C6CCC5CN(c5cc(-c7ccccc7O)nnc5N)C6)cc4)CC2)C3)C(C)(C)C)cn1 (stereo partly drawn) [I-30, (2S,4R)-1-((2S)-2-(6-(4-(4-(3-(3-amino-6-(2-hydroxyphenyl)pyridazin-4-yl)-3,8-diazabicyclo[3.2.1]octan-8-yl)phenyl)piperidin-1-yl)spiro[3.3]heptane-2-carboxamido)-3,3-dimethylbutanoyl)-4-hydroxy-N-((5-(4-methylthiazol-5-yl)pyrazin-2-yl)methyl)pyrrolidine-2-carboxamide] |  | > 1000 nM |  |  | > 1000 nM
Cc1ncsc1-c1ccc(CNC(=O)[C@@H]2C[C@@H](O)CN2C(=O)C(c2cc([C@H]3CC[C@H](N4CCC(c5cnc(N6C7CCC6CN(c6cc(-c8ccccc8O)nnc6N)C7)nc5)CC4)CC3)no2)C(C)C)cc1 (stereo partly drawn) [I-20, (2S,4R)-1-(2-(3-(4-(4-(2-(3-(3-amino-6-(2-hydroxyphenyl)pyridazin-4-yl)-3,8-diazabicyclo[3.2.1]octan-8-yl)pyrimidin-5-yl)piperidin-1-yl)cyclohexyl)isoxazol-5-yl)-3-methylbutanoyl)-4-hydroxy-N-(4-(4-methylthiazol-5-yl)benzyl)pyrrolidine-2-carboxamide] | > 90% | < 100 nM |  |  | 
Cc1ncsc1-c1ccc(CNC(=O)[C@@H]2C[C@@H](O)CN2C(=O)C(c2cc(N3CCC(CCCN4CCC(c5cnc(N6C7CCC6CN(c6cc(-c8ccccc8O)nnc6N)C7)nc5)CC4)CC3)no2)C(C)C)cc1 (stereo partly drawn) [I-64] | > 90% | < 100 nM | > 90% | < 100 nM | 
Cc1ncsc1-c1ccc(CNC(=O)[C@@H]2C[C@@H](O)CN2C(=O)C(c2cc(O[C@H]3CC[C@H](N4CCC(c5cnc(N6C7CCC6CN(c6cc(-c8ccccc8O)nnc6N)C7)nc5)CC4)CC3)no2)C(C)C)cc1 (stereo partly drawn) [I-17, (2S,4R)-1-(2-(3-(((1r,4S)-4-(4-(2-(3-(3-amino-6-(2-hydroxyphenyl)pyridazin-4-yl)-3,8-diazabicyclo[3.2.1]octan-8-yl)pyrimidin-5-yl)piperidin-1-yl)cyclohexyl)oxy)isoxazol-5-yl)-3-methylbutanoyl)-4-hydroxy-N-(4-(4-methylthiazol-5-yl)benzyl)pyrrolidine-2-carboxamide] | > 90% | < 100 nM | > 90% | < 100 nM | 
Cc1ncsc1-c1ccc(CNC(=O)[C@@H]2C[C@@H](O)CN2C(=O)C(c2cc([C@H]3CC[C@@H](N4CCC(c5cnc(N6C7CCC6CN(c6cc(-c8ccccc8O)nnc6N)C7)nc5)CC4)CC3)no2)C(C)C)cc1 (stereo partly drawn) [I-19, (2S,4R)-1-(2-(3-(4-(4-(2-(3-(3-amino-6-(2-hydroxyphenyl)pyridazin-4-yl)-3,8-diazabicyclo[3.2.1]octan-8-yl)pyrimidin-5-yl)piperidin-1-yl)cyclohexyl)isoxazol-5-yl)-3-methylbutanoyl)-4-hydroxy-N-(4-(4-methylthiazol-5-yl)benzyl)pyrrolidine-2-carboxamide] | > 90% | < 100 nM | > 90% | < 100 nM | 

Source: patent US12606568B2, “SMARCA degraders and uses thereof” (Kymera Therapeutics, Inc., priority 2020, dated 2026)
